Like-named read-outs stand apart in the source and are kept apart here.
What was measured:
JAK1/TYK2 = test: Cell level activity test of JAK1/TYK2 (IFN-α induced STAT3 phosphorylation in PBMC); format: cell-based; details: Homo sapiens; P-STAT3 by ELISA in PBMC, compound 1 h, IFN-α 5000 U/mL 15 min; read-out: IC50 nM (JAK 1 /TYK2)
Method: IFN-α can induce the phosphorylation of STAT3 downstream of JAK1/TYK2 in PBMC, and by measuring the level of STAT3 phosphorylation, the activity of the compound on JAK1/TYK2 at the cell level can be reflected.
Whole blood was collected from healthy subjects, anticoagulated with heparin sodium, and PBMC (human peripheral blood mononuclear cells) were extracted. PBMC were seeded in a 96-well culture plates at a density of 1*106/well. Positive wells and negative wells were added with the same volume of DMSO as the compound, and the final concentration of DMSO was 0.5%. The compounds were incubated with the cells at 37° C. for 1 h, and then stimulated by adding IFN-α at a final concentration of 5000 U/mL, an equal volume of medium was added to the negative wells, and incubated for 15 min. The cells were centrifuged to remove the supernatant, then lysed, and P-STAT3 was measured according to the instructions of the ELISA kit, the absorbance was read at 450 nm, and the IC50 value or inhibition rate was calculated.

[1] = Pharmacokinetic evaluation in rats after intravenous injection and oral administration; format: in vivo; details: rat, plasma; for AUC(0-t): read-out: PK AUClast; for Cmax: read-out: PK Cmax; for half-life: read-out: PK T½ (converted)
Method: The analytical LC/MS/MS system includes an Agilent 1200 series vacuum degasser, a binary syringe pump, an orifice plate autosampler, a column oven, and an Agilent G6430 triple quadrupole mass spectrometer with an electrospray ionization (ESI) source.
Agilent XDB-C18, 2.1 × 30 mm, 3.5 µM column was used to analysis, 5 µL sample was injected. Analytical conditions: Mobile phases were 0.1% formic acid in water (A) and 0.1% formic acid in methanol (B). The flow rate was 0.4 mL/min.
In addition, Agilent 6330 series LC/MS/MS spectrometer was used for analysis, equipped with G1312A binary syringe pump, G1367A automatic sampler and G1314C UV detector; LC/MS/MS spectrometer used ESI radiation source. Optimum analysis was achieved using standards with appropriate cation model processing and MRM conversion for each analyte. A Capcell MP-C18 column, 100 × 4.6 mm I.D., 5 µM (Phenomenex, Torrance, California, USA) was used during the analysis. Mobile phase was 5 mM ammonium acetate, 0.1% methanol in water (A): 5 mM ammonium acetate, 0.1% methanol in acetonitrile (B) (70/30, v/v); flow rate was 0.6 mL/min; column temperature was maintained at room temperature; 20 µL of sample was injected.
The present invention evaluates the pharmacokinetic studies of the compounds of the present invention in mice, rats, dogs or monkeys. The compounds of the present invention were administered in the form of aqueous solution or 2% HPMC + 1% Tween-80 aqueous solution, 5% DMSO + 5% saline solution, 4% MC or capsule. For intravenous administration, animals were dosed at about 0.5, 0.6, 1 or 2 mg/kg. The oral doses (p.o.) were 5 or 10 mg/kg for rats and mice, and 10 mg/kg for dogs and monkeys. Bloods (0.3 mL) were taken at time points 0.25, 0.5, 1.0, 2.0, 3.0, 4.0, 6.0, 8.0, 12 and 24 h and centrifuged at 3,000 or 4,000 rpm for 10 min. Plasma solutions were collected and stored at -20° C. or -70° C. until LC/MS/MS analysis as described above. […] Table 2 is the experimental results of the pharmacokinetic characteristics of the compounds provided in the examples of the present invention in rats.

| IC50 (JAK1/TYK2) [nM] | SMILES | also measured |
| --- | --- | --- |
| 52.7 | COC1(c2cccc(-c3cn(C)c4cnc(NC(C)=O)cc34)n2)CCOC1 (centres unmarked) [Control compound, reference compound] | – |
| 178 | COc1cc(-c2cn(C)c3cnc(NC(C)=O)cc23)nc2c1CCOC21CCOC1 (centres unmarked) [Example 5, N-(3-(4′-Methoxy-4,5,5′,6′-Tetrahydro-2H-Spiro[Furan-3,8′-Pyrano[3,4-b]Pyridin]-2′-yl)-1-Methyl-1H-Pyrrolo[2,3-c]Pyridin-5-yl)Acetamide] | – |
| 14.1 | CC(=O)Nc1cc2c(-c3cc(C(F)F)c4c(n3)C3(CCOC3)OCC4)cn(C)c2cn1 (centres unmarked) [Example 7, N-(3-(4′-(Difluoromethyl)-4,5,5′,6′-Tetrahydro-2H-Spiro[Furan-3,8′-Pyrano[3,4-b]Pyridin]-2′-yl)-1-Methyl-1H-Pyrrolo[2,3-c]Pyridin-5-yl)Acetamide] | – |
| 41.2 | COCc1cc(-c2cn(C)c3cnc(NC(C)=O)cc23)nc2c1CCOC21CCOC1 (centres unmarked) [Example 8, N-(3-(4′-(Methoxymethyl)-4,5,5′,6′-Tetrahydro-2H-Spiro[Furan-3,8′-Pyrano[3,4-b]Pyridin]-2′-yl)-1-Methyl-1H-Pyrrolo[2,3-c]Pyridin-5-yl)Acetamide] | – |
| 114 | CC(=O)Nc1cc2c(-c3ccc4c(n3)C3(CCOC3)OCN4C)cn(C)c2cn1 (centres unmarked) [Example 9, N-(1-Methyl-3-(1′-Methyl-1′,2′,4,5-Tetrahydro-2Hspiro[Furan-3,4′-Pyrido[3,2-d][1,3]Oxazin]-6′-yl)-1H-Pyrrolo[2,3-c]Pyridin-5-yl)Acetamide] | – |
| > 1000 | CC(=O)Nc1cc2c(-c3ccc4c(n3)C3(CCOC3)OC(=O)N4C)cn(C)c2cn1 (centres unmarked) [Example 10, N-(1-Methyl-3-(1′-Methyl-2′-Oxo-1′,2′,4,5-Tetrahydro-2H-Spiro[Furan-3,4′-Pyrido[3,2-d][1,3]Oxazin]-6′-yl)-1H-Pyrrolo[2,3-c]Pyridin-5-yl)Acetamide] | – |
| > 1000 | CC(=O)Nc1cc2c(-c3ccc4c(n3)C3(CCCOC3)OC4)cn(C)c2cn1 (centres unmarked) [Example 11, N-(3-(5′,6′-Dihydro-2′H,4′H,5H-Spiro[Furo[3,4-b]Pyridin-7,3′-Pyran]-2-yl)-1-Methyl-1H-Pyrrolo[2,3-c]Pyridin-5-yl)Acetamide] | – |
| 104 | CC(=O)Nc1cc2c(-c3ccc4c(n3)C3(CCOC3)OC(C)(C)N4C)cn(C)c2cn1 (centres unmarked) [Example 13, N-(1-Methyl-3-(1′,2′,2′-Trimethyl-1′,2′,4,5-Tetrahydro-2H-Spiro[Furan-3,4′-P yrido[3,2-d][1,3]Oxazin]-6′-yl)-1H-Pyrrolo[2,3-c]Pyridin-5-yl)Acetamide] | – |
| 48.6 | COCCOc1cc(-c2cn(C)c3cnc(NC(C)=O)cc23)nc2c1CCOC21CCOC1 (centres unmarked) [Example 15, N-(3-(4′-(2-Methoxyethoxy)-4,5,5′,6′-Tetrahydro-2H-Spiro[Furan-3,8′-Pyrano [3,4-b]Pyridin]-2′-yl)-1-Methyl-1H-Pyrrolo[2,3-c]Pyridin-5-yl)Acetamide] | – |
| 126 | CC(=O)Nc1cc2c(-c3cc(OC(C)C)c4c(n3)C3(CCOC3)OCC4)cn(C)c2cn1 (centres unmarked) [Example 17, N-(3-(4′-Isopropoxy-4,5,5′,6′-Tetrahydro-2H-Spiro[Furan-3,8′-Pyrano[3,4-b]P yridine]-2′-yl)-1-Methyl-1H-Pyrrolo[2,3-c]Pyridin-5-yl)Acetamide] | – |
| 19.6 | CC(=O)Nc1cc2c(-c3ccc4c(n3)C3(CCOC3)OCC4(F)F)cn(C)c2cn1 (centres unmarked) [Example 18, N-(3-(5′,5′-Difluoro-4,5,5′,6′-Tetrahydro-2H-Spiro[Furan-3,8′-Pyrano[3,4-b]P yridine]-2′-yl)-1-Methyl-1H-Pyrrolo[2,3-c]Pyridin-5-yl)Acetamide] | – |
| 115 | CC(=O)Nc1cc2c(-c3cc(OCCN(C)C)c4c(n3)C3(CCOC3)OCC4)cn(C)c2cn1 (centres unmarked) [Example 19, N-(3-(4′-(2-(Dimethylamino)Ethoxy)-4,5,5′,6′-Tetrahydro-2H-Spiro[Furan-3,8′ -Pyrano[3,4-b]Pyridine]-2′-yl)-1-Methyl-1H-Pyrrolo[2,3-c]Pyridin-5-yl)Acetamide] | – |
| 36.9 | CC(=O)Nc1cc2c(-c3cc(Cl)c4c(n3)C3(CCOC3)OCC4)cn(C)c2cn1 (centres unmarked) [Example 21, N-(3-(4′-Chloro-4,5,5′,6′-Tetrahydro-2H-Spiro[Furan-3,8′-Pyrano[3,4-b]Pyridine]-2′-yl)-1-Methyl-1H-Pyrrolo[2,3-c]Pyridin-5-yl)Acetamide] | – |
| 7.23 | COCCCOc1cc(-c2cn(C)c3cnc(NC(C)=O)cc23)nc2c1CCOC21CCOC1 (centres unmarked) [Example 22, N-(3-(4′-(3-Methoxypropoxy)-4,5,5′,6′-Tetrahydro-2H-Spiro[Furan-3,8′-Pyrano[3,4-b]Pyridin]-2′-yl)-1-Methyl-1H-Pyrrolo[2,3-c]Pyridin-5-yl)Acetamide] | – |
| 104 | CC(=O)Nc1cc2c(-c3cc(S(C)(=O)=O)c4c(n3)C3(CCOC3)OCC4)cn(C)c2cn1 (centres unmarked) [Example 23, N-(1-meThyl-3-(4′-(Methylsulfonyl)-4,5,5′,6′-Tetrahydro-2H-Spiro[Furan-3,8′-Pyrano[3,4-b]Pyridin]-2′-yl)-1H-Pyrrolo[2,3-c]Pyridin-5-yl)Acetamide] | – |
| 29.9 | CC(=O)Nc1cc2c(-c3cc(N(C)C)c4c(n3)C3(CCOC3)OCC4)cn(C)c2cn1 (centres unmarked) [Example 24, N-(3-(4′-(Dimethylamino)-4,5,5′,6′-Tetrahydro-2H-Spiro[Furan-3,8′-Pyrano[3,4-b]Pyridin]-2′-yl)-1-Methyl-1H-Pyrrolo[2,3-c]Pyridin-5-yl)Acetamide] | – |
| 45.5 | CC(=O)Nc1cc2c(-c3cc(C#N)c4c(n3)C3(CCOC3)OCC4)cn(C)c2cn1 (centres unmarked) [Example 25, N-(3-(4′-Cyano-4,5,5′,6′-Tetrahydro-2H-Spiro[Furan-3,8′-Pyrano[3,4-b]Pyridine]-2′-yl)-1-Methyl-1H-Pyrrolo[2,3-c]Pyridin-5-yl)Acetamide] | – |
| 93.1 | CC(=O)Nc1cc2c(-c3cc(OCCCN(C)C)c4c(n3)C3(CCOC3)OCC4)cn(C)c2cn1 (centres unmarked) [Example 29, N-(3-(4′-(3-(Dimethylamino)Propoxy)-4,5,5′,6′-Tetrahydro-2H-Spiro[Furan-3, 8′-Pyrano[3,4-b]Pyridin]-2′-yl)-1-Methyl-1H-Pyrrolo[2,3-c]Pyridin-5-yl)Acetamide] | – |

| SMILES | IC50 (JAK1/TYK2) [nM] | also measured |
| --- | --- | --- |
| CCCCOc1cc(-c2cn(C)c3cnc(NC(C)=O)cc23)nc2c1CCOC21CCOC1 (centres unmarked) [Example 20, N-(3-(4′-Butoxy-4,5,5′,6′-Tetrahydro-2H-Spiro[Furan-3,8′-pyrAno[3,4-b]Pyridine]-2′-yl)-1-Methyl-1H-Pyrrolo[2,3-c]Pyridin-5-yl)Acetamide] | 64.9 | – |
| CC(=O)Nc1cc2c(-c3cc(OCCC(C)(C)O)c4c(n3)C3(CCOC3)OCC4)cn(C)c2cn1 (centres unmarked) [Example 26, N-(3-(4′-(3-Hydroxy-3-Methylbutoxy)-4,5,5′,6′-Tetrahydro-2H-Spiro[Furan-3, 8′-Pyrano[3,4-b]Pyridin]-2′-yl)-1-Methyl-1H-Pyrrolo[2,3-c]Pyridin-5-yl)Acetamide] | 110 | AUC(0-t) ([1]; IV 2 mg/kg): 494 ng·h/mL; Cmax ([1]; IV 2 mg/kg): 289 ng/mL; half-life ([1]; IV 2 mg/kg): 1.65 h; AUC(0-t) ([1]; PO 5 mg/kg): 2290 ng·h/mL; Cmax ([1]; PO 5 mg/kg): 612 ng/mL; half-life ([1]; PO 5 mg/kg): 3.62 h; bioavailability ([1]; oral bioavailability, PO 5 mg/kg): 98.5% |
| COC(C)(C)CCOc1cc(-c2cn(C)c3cnc(NC(C)=O)cc23)nc2c1CCOC21CCOC1 (centres unmarked) [Example 27, N-(3-(4′-(3-Methoxy-3-Methylbutoxy)-4,5,5′,6′-Tetrahydro-2H-Spiro[Furan-3, 8′-Pyrano[3,4-b]Pyridin]-2′-yl)-1-Methyl-1H-Pyrrolo[2,3-c]Pyridin-5-yl)Acetamide] | 13.1 | – |
| COCCCCOc1cc(-c2cn(C)c3cnc(NC(C)=O)cc23)nc2c1CCOC21CCOC1 (centres unmarked) [Example 28, N-(3-(4′-(4-Methoxybutoxy)-4,5,5′,6′-Tetrahydro-2H-Spiro[Furan-3,8′-Pyrano[3,4-b]Pyridin]-2′-yl)-1-Methyl-1H-Pyrrolo[2,3-c]Pyridin-5-yl)Acetamide] | 12.9 | – |
